From patent US9023789B2, “Amylin analogs and pharmaceutical compositions thereof” (Novo Nordisk A/S, priority 2012, dated 2015)
pEC50, pIC50: −log10 of the molar value. ≈ marks a conversion by molar mass, not a printed value. Where two headings read alike, the source gives them in different places. Numbered stars: 1 amine (or outer) side, 2 acyl side, 3 side chain; on linkers, the order of the positions; unused ones are H or OH. Bridge positions count the residues as written; N and C are the ends. Side chains are listed from the residue outwards. Peptide text beside a SMILES is read from it. * marks the point of attachment. C20 diacid = O=C(O)CCCCCCCCCCCCCCCCCCC(=O)*; γGlu = O=C(O)[C@H](CCC(=O)[*:2])N[*:1]

Columns and labels:
[1] = target: T1, human amylin 3(a) receptor (human calcitonin receptor + RAMP-3) in BHK570 cells (Homo sapiens, UniProt O60896+P30988); experiment: ASSAY (II)a functional assay, human amylin receptor (CRE luciferase); type: cell-based; conditions: for pEC50: human amylin receptor functional potency, assay (II), read-out: hAmylin-R funct. EC50
T1 construct: expressed in transfected cells
In short: (§1)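 Ligand exposure 3 h at 37 °C, 5% CO2 in DMEM with 10% FBS, 10 mM Hepes pH 7.4. cAMP-driven luciferase read by luminescence after 30 min LucLite at room temperature.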

[2] = target: T2, human calcitonin receptor (Homo sapiens, UniProt P30988); experiment: ASSAY (VII) binding to the human calcitonin receptor (SPA, 125I-Calcitonin); conditions: read-out: hCTR bind IC50;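 note: cell membranes (35 ng/µL) combined with SPA beads in 40 µL of pH 7.4 Hepes buffer, 384-well format, signal counted on a TopCounter instrument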
T2 construct: expressed in transfected cells
T2 sequence (P30988 25-474): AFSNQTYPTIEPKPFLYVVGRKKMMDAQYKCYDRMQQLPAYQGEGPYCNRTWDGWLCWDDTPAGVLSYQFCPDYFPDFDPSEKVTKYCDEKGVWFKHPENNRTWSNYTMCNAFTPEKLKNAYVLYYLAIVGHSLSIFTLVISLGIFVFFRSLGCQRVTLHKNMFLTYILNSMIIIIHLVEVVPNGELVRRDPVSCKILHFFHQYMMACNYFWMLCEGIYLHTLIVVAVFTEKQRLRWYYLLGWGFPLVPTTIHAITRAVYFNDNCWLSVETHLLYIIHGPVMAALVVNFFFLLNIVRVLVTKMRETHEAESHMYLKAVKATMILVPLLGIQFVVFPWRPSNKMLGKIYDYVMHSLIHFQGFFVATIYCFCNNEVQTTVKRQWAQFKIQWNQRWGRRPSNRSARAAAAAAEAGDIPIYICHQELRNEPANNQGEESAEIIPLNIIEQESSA

[3] = target: T3, human amylin receptor (membranes from Amylin 3(a)/CRE-luc cells) (Homo sapiens, UniProt O60896+P30988); experiment: ASSAY (V) binding to the human amylin receptor (SPA, 125I-rat amylin); conditions: for pIC50: Table 4, read-out: hAmylin-R bind IC50;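 for all read-outs here: competition binding of cell membranes (35 ng/µL) mixed with SPA beads in 384-well plates at 40 µL total volume, read by scintillation counting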
T3 construct: expressed in transfected cells
T3 sequence (P30988 25-474): T2 sequence (P30988 25-474)
T3 sequence (O60896 24-148 partner): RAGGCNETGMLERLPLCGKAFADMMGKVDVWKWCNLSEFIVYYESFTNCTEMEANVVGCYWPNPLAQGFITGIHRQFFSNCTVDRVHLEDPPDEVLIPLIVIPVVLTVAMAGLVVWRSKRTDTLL

[4] = target: T4, human calcitonin (a) receptor in BHK570 cells (Homo sapiens, UniProt P30988); experiment: ASSAY (II)a functional assay, human calcitonin receptor (CRE luciferase); type: cell-based; conditions: read-out: hCTR funct. EC50
T4 construct: expressed in transfected cells
T4 sequence (P30988 25-474): T2 sequence (P30988 25-474)
In short: as §1

[5] = ASSAY (IV) determination of solubility; type: physicochemical
In short: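 Dissolve polypeptide in water ([…] stock); combine 1:1 with each 100 mM buffer (glycylglycine pH 3.0/4.0/5.0; bistrispropane pH 6.0/6.5/7.0/7.5/8.0); hold 18 hours at room temperature; centrifuge; quantify polypeptide by UPLC.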

[6] = hCTR funct. EC50 divided by hAmylin-R funct. EC50
[7] = hCTR funct. EC50 over hAmylin-R funct. EC50
[8] = human functional selectivity: hCTR funct. EC50 / hAmylin-R funct. EC50
[9] = Table 5, selectivity, hCTR bind IC50 / hAmylin-R bind IC50
[10] = Table 5a, selectivity, hCTR bind IC50 / hAmylin-R bind IC50
[11] = Table 5b, selectivity, hCTR bind IC50 / hAmylin-R bind IC50
[12] = Table 7, human binding selectivity, included for comparison
[13] = Table 7a (preferred compounds), human binding selectivity, included for comparison
[14] = ratio of human calcitonin receptor binding IC50 to human amylin receptor binding IC50
[15] = bistrispropane buffer, pH 6.5, read-out: Solubility pH 6.5 Concentration
[16] = bistrispropane buffer, pH 7.5, read-out: Solubility pH 7.5 Concentration
[17] = bistrispropane buffer, pH 6.0, read-out: Solubility pH 6.0 Concentration
[18] = bistrispropane buffer, pH 7.0, read-out: Solubility pH 7.0 Concentration
[19] = bistrispropane buffer, pH 8.0, read-out: Solubility pH 8.0 Concentration
[20] = glycylglycine buffer, pH 3.0, read-out: Solubility pH 3.0 Concentration
[21] = glycylglycine buffer, pH 4.0, read-out: Solubility pH 4.0 Concentration
[22] = glycylglycine buffer, pH 5.0, read-out: Solubility pH 5.0 Concentration

CC[C@H](C)[C@H](NC(=O)[C@H](C)NC(=O)CNC(=O)[C@H](Cc1ccccc1)NC(=O)[C@H](CC(N)=O)NC(=O)[C@@H]1CCCN1C(=O)[C@H](CO)NC(=O)[C@H](CO)NC(=O)[C@H](Cc1c[nH]cn1)NC(=O)[C@H](CCCNC(=N)N)NC(=O)[C@H](CC(C)C)NC(=O)[C@H](Cc1ccccc1)NC(=O)[C@H](CC(N)=O)NC(=O)[C@H](C)NC(=O)[C@H](CC(C)C)NC(=O)[C@H](CCCNC(=N)N)NC(=O)[C@H](CCC(N)=O)NC(=O)[C@@H](NC(=O)[C@H](C)NC(=O)[C@@H]1CSSC[C@H](NC(=O)[C@H](CCCNC(=N)N)NC(=O)[C@@H](N)CCCCNC(=O)CC[C@H](NC(=O)CCCCCCCCCCCCCCCCCCC(=O)O)C(=O)O)C(=O)N[C@@H](CC(N)=O)C(=O)N[C@@H]([C@@H](C)O)C(=O)N[C@@H](C)C(=O)N[C@@H]([C@@H](C)O)C(=O)N1)[C@@H](C)O)C(=O)N1CCC[C@H]1C(=O)N[C@@H](CO)C(=O)N[C@@H](CO)C(=O)N[C@H](C(=O)N[C@@H](CC(N)=O)C(=O)N[C@H](C(=O)NCC(=O)N[C@@H](CO)C(=O)N[C@@H](Cc1c[nH]cn1)C(=O)N[C@H](C(=O)N[C@@H](Cc1ccc(O)cc1)C(N)=O)[C@@H](C)O)C(C)C)[C@@H](C)O [Example 44] (H-K([γGlu-C20 diacid])RCNTATCATQRLANFLRHSSPNFGAIPSSTNVGSHTY-NH2; disulfide 3-8)
Ratio hCT/hAmylin funct. [1, 6]: 24.0
Ratio hCT/hAmylin funct. [1, 7]: 24.0
pEC50 [1]: 9.70
Ratio hCT/hAmylin funct. [1, 8]: 24.0
pIC50 [2]: 8.31
pIC50 [3]: 9.56
Ratio hCT/hAmylin binding [3, 9]: 17.7
Ratio hCT/hAmylin binding [3, 10]: 17.7
Ratio hCT/hAmylin binding [3, 11]: 17.7
Ratio hCT/hAmylin binding [3, 12]: 17.7
Ratio hCT/hAmylin binding [3, 13]: 17.7
Ratio hCT/hAmylin binding [3, 14]: 17.7
pEC50 [4]: 8.32
solubility at 18 h [5, 15]: ≥ 200 µM
solubility at 18 h [5, 16]: 87 µM (≈ 397 µg/mL)
solubility at 18 h [5, 17]: ≥ 200 µM
solubility at 18 h [5, 18]: ≥ 200 µM
solubility at 18 h [5, 19]: 39 µM (≈ 178 µg/mL)
solubility at 18 h [5, 20]: ≥ 200 µM
solubility at 18 h [5, 21]: ≥ 200 µM
solubility at 18 h [5, 22]: ≥ 200 µM

CC[C@H](C)[C@H](NC(=O)[C@H](C)NC(=O)CNC(=O)[C@H](Cc1ccccc1)NC(=O)[C@H](CC(N)=O)NC(=O)[C@@H]1CCCN1C(=O)[C@H](CO)NC(=O)[C@H](CO)NC(=O)[C@H](Cc1c[nH]cn1)NC(=O)[C@H](CCCNC(=N)N)NC(=O)[C@H](CC(C)C)NC(=O)[C@H](Cc1ccccc1)NC(=O)[C@H](CC(N)=O)NC(=O)[C@H](C)NC(=O)[C@H](CC(C)C)NC(=O)[C@H](CCCNC(=N)N)NC(=O)[C@H](CCC(N)=O)NC(=O)[C@@H](NC(=O)[C@H](C)NC(=O)[C@@H]1CSSC[C@H](NC(=O)[C@@H](N)CCCCNC(=O)CC[C@H](NC(=O)CCCCCCCCCCCCCCCCCCC(=O)O)C(=O)O)C(=O)N[C@@H](CC(N)=O)C(=O)N[C@@H]([C@@H](C)O)C(=O)N[C@@H](C)C(=O)N[C@@H]([C@@H](C)O)C(=O)N1)[C@@H](C)O)C(=O)N1CCC[C@H]1C(=O)N[C@@H](CO)C(=O)N[C@@H](CO)C(=O)N[C@H](C(=O)N[C@@H](CC(N)=O)C(=O)N[C@H](C(=O)NCC(=O)N[C@@H](CO)C(=O)N[C@@H](CC(N)=O)C(=O)N[C@H](C(=O)N[C@@H](Cc1ccc(O)cc1)C(N)=O)[C@@H](C)O)C(C)C)[C@@H](C)O [Example 48]
Ratio hCT/hAmylin funct. [1, 6]: 17.0
Ratio hCT/hAmylin funct. [1, 7]: 17.0
pEC50 [1]: 9.94
Ratio hCT/hAmylin funct. [1, 8]: 17.0
pIC50 [2]: 7.51
pIC50 [3]: 9.35
Ratio hCT/hAmylin binding [3, 9]: 69.7
Ratio hCT/hAmylin binding [3, 10]: 69.7
Ratio hCT/hAmylin binding [3, 11]: 69.7
Ratio hCT/hAmylin binding ([3]; Table 5c, selectivity, hCTR bind IC50 / hAmylin-R bind IC50): 69.7
Ratio hCT/hAmylin binding [3, 12]: 69.7
Ratio hCT/hAmylin binding [3, 13]: 69.7
Ratio hCT/hAmylin binding [3, 14]: 69.7
pEC50 [4]: 8.71
solubility at 18 h [5, 15]: ≥ 200 µM
solubility at 18 h [5, 16]: ≥ 200 µM
solubility at 18 h [5, 17]: ≥ 200 µM
solubility at 18 h [5, 18]: ≥ 200 µM
solubility at 18 h [5, 19]: ≥ 200 µM
solubility at 18 h [5, 20]: ≥ 200 µM
solubility at 18 h [5, 21]: ≥ 200 µM
solubility at 18 h [5, 22]: ≥ 200 µM
